Results on 5 compounds are retold here after publication PMC9002334 (Virology, 2022).

Data set [1] concerns HCoV-229E. The data set is described as follows: microbe, parasite or virus in culture. Format: cell-based, Human coronavirus 229E.
The target of data set [2] is T1, SARS-CoV-2 M^pro (Severe acute respiratory syndrome coronavirus 2, UniProt P0DTD1). Put plainly: Inhibition assay of the SARS-CoV-2 M^pro activity. Format: biochemical.
The conditions of data set [3]: after the intake of 150 mg in 1 h; ref de Whalley et al., 1990; Olthof et al., 2000; cited from earlier work.
Data set [4] deals with T1, SARS-CoV-2 M^pro. The following applies: ref Zhu and Xie, 2020; cited from earlier work.

In the case of `O=c1c(O[C@@H]2O[C@H](CO)[C@@H](O)[C@H](O)[C@H]2O)c(-c2ccc(O)c(O)c2)oc2cc(O)cc(O)c12` [Isoquercitrin, quercetin-3-O-glycoside], the “Concentration at which inhibition of HCoV-229E replication starts” value (“Concentration at which inhibition” below) in data set [1] is 2.5 µM.
For `C[C@@H]1O[C@@H](OC[C@H]2O[C@@H](Oc3c(-c4ccc(O)c(O)c4)oc4cc(O)cc(O)c4c3=O)[C@H](O)[C@@H](O)[C@@H]2O)[C@H](O)[C@H](O)[C@H]1O` [Rutin, rutin], in data set [2], the “Inhibitive effect on the M^pro activity at 100 μM” value was “most effectiveness”.
What is called EC50 is the concentration giving half of the maximal effect. As for `O=c1c(O)c(-c2ccc(O)c(O)c2)oc2cc(O)cc(O)c12` [Quercetin, quercetin], the “Concentration at which inhibition” value in data set [1] is 5.0 µM. Further, the “Effect on HCoV-229E replication at 2.5 μM” value in data set [1] (Huh-7 cells, 2.5 μM) is reported as “slightly reduce”. Further, the “Inhibition of HCoV-229E replication at concentration higher than 10 μM” value in data set [1] (Huh-7 cells, higher than 10 μM) was “strongly inhibit”. Further, the EC50 in data set [1] (Human coronavirus 229E, Huh-7, 24 h, read-out: EC50, inhibition of HCoV-229E replication) was 4.88 µM. In addition, in data set [3], the “Quercetin concentration in plasma” value was 5.0 ± 1.0 µM.
Consider `Oc1cc(O)c2c(c1)O[C@H](c1ccc(O)c(O)c1)[C@H](O)C2` [(−)-epicatechin], for which the “Concentration at which inhibition” value in data set [1] came to 20 µM. Moreover, the “Inhibitive effect on the M^pro activity at 100 μM” value in data set [2] was “did not inhibit”. Also, the “Inhibitory effect on the M^pro activity” value in data set [2] (range of concentrations from 0 to 200 μM) is listed as “did not show an inhibitory effect”. Also, the “Inhibition of the SARS-CoV-2 M^pro activity” value in data set [4] is listed as “could not”.
As to `O=C(O[C@@H]1Cc2c(O)cc(O)cc2O[C@@H]1c1cc(O)c(O)c(O)c1)c1cc(O)c(O)c(O)c1` [EGCG, epigallocatechin gallate, reference compound], the “Concentration at which inhibition” value in data set [1] worked out at 2.5 µM. Also, the “Inhibition of the SARS-CoV-2 M^pro activity” value in data set [4] was “effectively inhibited”.
